What was measured:
[1] = biological target: T1, FERM/ErbB2 interaction (Ezrin FERM domain / juxtamembrane ErbB2 peptide) (Homo sapiens, UniProt P04626); assay: AlphaScreen competition assay, FERM/ErbB2 interaction; assay type: binding; conditions: 1 h
T1 construct: made in house
From the text: (§1) To validate that the Zuclopenthixol hydrochloride (ZU) and its derivatives interact with the juxtamembrane domain of ErbB2, we first analyzed in AlphaScreen® their efficiency to inhibit FERM/ErbB2 interaction in a dose-dependent manner and determined IC50 value. Furthermore, to test the selectivity of those compounds, we tested their ability to disrupt the interaction between the FERM domain and the known ERM binding motif contained in the juxtamembrane region of CD44 as a control.
AlphaScreen® technology was used to assess the interaction between the Ezrin binding motif (EBM) contained in the juxtamembrane portions of ErbB2 or CD44 with the Ezrin FERM domain. For this purpose the Ezrin FERM domain in fusion with Glutathione-S-Transferase (GST) has been coupled to GSH-coated acceptor beads. […] The AlphaScreen® reagents (Glutathione-coated Acceptor beads and streptavidin-coated Donor beads) were obtained from PerkinElmer.
The reaction was performed using white 384-well Optiplates (PerkinElmer, Whalham, Mass., USA) in 20 μl (total reaction volume) in a reaction buffer containing PBS, pH 7.4, 5 mM MgCl2 and 0.02% CHAPS. […] 10 μl of a mix solution containing 20 μg/ml Glutathione-coated Acceptor beads and 20 μg/ml streptavidin-coated Donor beads was then added to the wells and incubation was further proceeded for 40 min or overnight in the dark and at room temperature. Light signal was detected with the EnVision® multilabel plate reader (PerkinElmer). All experiments involving AlphaScreen® beads were performed under subdued lighting.

FERM/CD44 interaction = biological target: T2, FERM/CD44 interaction (Homo sapiens, UniProt P16070); assay: AlphaScreen counter screen, FERM/CD44 interaction; assay type: binding; conditions: 1 h
T2 construct: the juxtamembrane region of CD44 (biotin-[…]); made in house
From the text: as §1
AlphaScreen® technology was used to assess the interaction between the Ezrin binding motif (EBM) contained in the juxtamembrane portions of ErbB2 or CD44 with the Ezrin FERM domain. For this purpose the Ezrin FERM domain in fusion with Glutathione-S-Transferase (GST) has been coupled to GSH-coated acceptor beads. Biotinylated ErbB2 peptide encoding the Ezrin binding motif (amino acid 674 to 689: biotin-[…], 26 aa) or the juxtamembrane region of CD44 (biotin-[…]), for the counter screen have been synthesized and coupled to streptavidin-covered donor beads. […]
The reaction was performed using white 384-well Optiplates (PerkinElmer, Whalham, Mass., USA) in 20 μl (total reaction volume) in a reaction buffer containing PBS, pH 7.4, 5 mM MgCl2 and 0.02% CHAPS. […] Light signal was detected with the EnVision® multilabel plate reader (PerkinElmer). […]

SKBR3 = assay: MTT cell proliferation, SKBR3; assay type: cell-based, human
Experimental: (§2) We then analyzed the ability of ZU and EB1 and their derivatives to decrease the ErbB2-dependent cell proliferation.
(§3) SKBR3, BT474, MCF-7, MDA-MB-231 and HBMEC cells were treated with the compounds as indicated, and cell proliferation was determined each day during 3 days using an MTT assay. Non treated cells were included as a negative control.
A solution of ZU in cis conformation was mixed to a solution of ZU in trans conformation (1:1) to obtain ZU in a 50/50 cis/trans conformation and their respective effects on ErbB2 activation and ErbB2-dependent cell proliferation were analyzed as previously by dot blot analysis using an anti-phosphotyrosine antibody (clone 4G10) and by MTT assays in the ErbB2-overexpressing breast cancer cell line SKBR3, BT474, or HBMEC as a control.

MCF7 = assay: MTT cell proliferation, MCF7; assay type: cell-based; conditions: 10 μM
Experimental: as §2, §3

[2] = tested on: human breast cancer BT474 cells; assay: BT474 orthotopic xenograft in mammary fat pad of mice; assay type: in vivo, NOD.Cg-Prkdc scid/J mice; conditions: for tumor growth in vivo (in words): then once per day 3 days
Experimental: 5.10^6 BT474 cells were implanted orthotopically in the mammary fat pad of NOD.Cg-Prkdc scid/J mice, in the presence of estradiol supplement. After 4 weeks, mice were injected with ZU (N=10, 5 mg/kg per day for 5 days a week, followed by 3 mg/kg for 5 days a week during three weeks for N=6) or vehicle (N=10, 10% DMSO in PBS). Mice weight and tumor volume were measured 3 and 2 times a week respectively.
5.10^6 BT474 cells were implanted orthotopically in the mammary fat pad of NOD.Cg-Prkdc scid/J mice, in the presence of estradiol supplement. Nineteen days after implantation, treatment began and mice were injected i.p. with […] ZU (5 mg/kg per day for 3 days a week, during three weeks for N=9), 4 mg/kg ZU (5 days a week during three weeks, N=8) or vehicle (N=9, 10% DMSO in PBS). Mice weight and tumor volume were measured 3 and 2 times a week respectively.
5.10^6 BT474 cells were implanted orthotopically in the mammary fat pad of NOD.Cg-Prkdc scid/J mice, in the presence of estradiol supplement. After 4 weeks, mice were injected with EB1 3 mg/kg (N=8), 5 mg/kg (N=6) or vehicle (N=8, 10% DMSO in PBS) twice a day for 5 days a week (2×D), during 2 weeks then once per day (1×D) during 3 days. Mice weight and tumor volume were measured 3 and 2 times a week respectively.

V777L ErbB2 = biological target: T3, V777L ErbB2 (Homo sapiens, UniProt P04626, V777L); assay: Western blot pY1248, V777L ErbB2 in transfected HBMECs; assay type: cell-based; conditions: 0, 5, 10 or 20 μM, 48 h
T3 construct: expressed in transfected cells; host or cells: HBMEC
Experimental: HBMECs cells were transfected with plasmids encoding WT, V777L or V842I and treated with 0, 5, 10 or 20 μM ZU or EB1 for 48 h. ErbB2 activation was then analyzed by western blot analysis using a phospho-ErbB2-specific antibody (pY1248) and a total ErbB2 antibody. Histograms show optical density quantification.

O=C1c2ccccc2[Se](=O)N1c1ccccc1 (stereo not shown) [EB1, Ebselen oxide]
inhibition of FERM/ErbB2 interaction [1]: 43%
effect on FERM/CD44 interaction (FERM/CD44 interaction): without significantly altering FERM/CD44 interaction at low doses
IC50 (SKBR3; Homo sapiens, SK-BR-3): 7.5 µM
EC50 (SKBR3; Homo sapiens, SK-BR-3, 72 h, day 3, read-out: Cell proliferation at d 3 SKBR3 EC50): 7.4 µM
Cell proliferation at d 3 SKBR3 Max inhibition, % (SKBR3; day 3): 96.7%
effect on MCF7 proliferation (in words) (MCF7): without any effect
tumor growth in vivo (in words) ([2]; 3 mg/kg twice a day 5 days a week 2 weeks): able to decrease the tumor growth
tumor growth in vivo (in words) ([2]; 5 mg/kg twice a day 5 days a week 2 weeks, tumor volume and tumor weight): more significant
tolerability in mice, body weight (in words) ([2]; 3 or 5 mg/kg): well tolerated
ErbB2 V777L activation (in words) (V777L ErbB2): potently decrease

— patent publication US10766873B2, “Zuclopenthixol hydrochloride derivatives and Ebselen derivatives as ErbB2 inhibitors” (Centre National de la Recherche Scientifique (CNRS), priority 2016, dated 2020)
